The record followed here is patent US9091678B2, “Method for identifying compounds useful for treating and/or preventing disease-associated bone loss” (priority 2008, dated 2015).

One series deals with RAW264.7 cells differentiated in osteoclasts. The experiment in a line: Toxicity test on differentiated osteoclasts (TRAP staining, morphology). The class given is cell-based. On the set-up: key: compounds which induce the death of all the osteoclasts after 72 hours (−); compounds which induce morphological anomalies and/or death of part of the osteoclasts (+/−); +: Compounds which do not induce visible modifications of the osteoclasts. Particulars: at the concentration given in Table 2, vs 0.5% DMSO control. The procedure: The compounds were tested for their toxicity on differentiated osteoclasts at the concentration determined above. RAW264.7 cells differentiated in osteoclasts were allowed to grow for 72 hours in presence of the tested compounds. […] This osteoclasts specific labeling permits to visualize the cell morphology. The cell morphology was then compared to control cells which were allowed to grow in presence of 0.5% DMSO.
For the compound `O=S(=O)(c1cccc2nsnc12)N1CCN(C(c2ccccc2)c2ccccc2)CC1` [Compound 26, 4-{[4-(diphenylmethyl)-1-piperazinyl]sulfonyl}-2,1,3-benzothiadiazole], the “Survival at 72 hours” value is reported as “−”.

With `COCCOC(=O)c1ccc(NC(=O)c2ccc(C(C)(C)C)cc2)cc1` [Compound 44, 2-methoxyethyl 4-[(4-tert-butylbenzoyl)amino]benzoate], the “Survival at 72 hours” value is reported as “−”.

As for `COc1cccc(/C=C2/C=C(c3ccc(C)cc3)OC2=O)c1` [Compound 23, 3-(3-methoxybenzylidene)-5-(4-methylphenyl)-2(3H)-furanone], the “Survival at 72 hours” value is given as “−”.

Turning to `O=C(COc1ccccc1Cl)Nc1cc(C(F)(F)F)ccc1Cl` [Compound 12, 2-(2-chlorophenoxy)-N-[2-chloro-5-(trifluoromethyl)phenyl]acetamide], the “Survival at 72 hours” value is given as “+”.

With `O=C(/C=C/c1ccc(F)cc1)Nc1ccccc1Cl` [Compound 40, N-(2-chlorophenyl)-3-(4-fluorophenyl)acrylamide], the “Survival at 72 hours” value is listed as “+”.

Consider `O=C(O)/C=C/c1ccc(-c2ccc(Cl)c(Cl)c2)o1` [Compound 24, 3-[5-(3,4-dichlorophenyl)-2-furyl]acrylic acid], for which the “Survival at 72 hours” value was “−”.

`O=C(Nc1ccccc1)Nc1nnc(C23CC4CC(CC(C4)C2)C3)s1` [Compound 49, N-[5-(1-adamantyl)-1,3,4-thiadiazol-2-yl]-N′-phenylurea]: the “Survival at 72 hours” value is “+/−”.

Consider `CCc1nc(-c2ccccc2)nc(C)c1C` [Compound 50, 4-ethyl-5,6-dimethyl-2-phenylpyrimidine], for which the “Survival at 72 hours” value is reported as “+”.

In the case of `O=C(/C=C/c1cccc(C(F)(F)F)c1)Nc1ccc(F)cc1` [Compound 54, N-(4-fluorophenyl)-3-[3-(trifluoromethyl)phenyl]acrylamide], the “Survival at 72 hours” value is recorded as “−”.

For the compound `COc1cc([N+](=O)[O-])ccc1N=S(C)C` [Compound 43, 1-[(dimethyl-lambda~4~-sulfanylidene)amino]-2-methoxy-4-nitrobenzene], the “Survival at 72 hours” value is “+”.

With `CCC(=O)Nc1ccc(N2CCN(C(C)=O)CC2)cc1` [Compound 13, N-[4-(4-acetyl-1-piperazinyl)phenyl]propanamide], the “Survival at 72 hours” value was “+”.

Consider `CC(C)(C)c1cc(C2Nc3cccc4cccc(c34)N2)cc(C(C)(C)C)c1O` [Compound 30, 2,6-di-tert-butyl-4-(2,3-dihydro-1H-perimidin-2-yl)phenol], for which the “Survival at 72 hours” value is “−”.

Consider `Oc1ccc(-c2nc(-c3ccccc3)c(-c3cccs3)[nH]2)cc1O` [Compound 34, 4-[4-phenyl-5-(2-thienyl)-1H-imidazol-2-yl]-1,2-benzenediol], for which the “Survival at 72 hours” value was “−”.

Regarding `Cc1ccc(N(C(=O)C(Cl)(Cl)Cl)C2C=CS(=O)(=O)C2)cc1` (stereo not drawn) [Compound 5, 2,2,2-trichloro-N-(1,1-dioxido-2,3-dihydro-3-thienyl)-N-(4-methylphenyl)acetamide], the “Survival at 72 hours” value is recorded as “−”.

In the case of `O=C(COc1cccc2ccccc12)Nc1ccc2c(c1)OCCO2` [Compound 10, N-(2,3-dihydro-1,4-benzodioxin-6-yl)-2-(1-naphthyloxy)acetamide], the “Survival at 72 hours” value was “+”.

Take `COc1ccc(NC(=O)c2ccccc2Cl)cc1Cl` [Compound 51, 2-chloro-N-(3-chloro-4-methoxyphenyl)benzamide]: the “Survival at 72 hours” value is reported as “+”.

On to `O=C(Nc1cc(Cl)cc(Cl)c1)S(=O)(=O)c1ccccc1` [Compound 21, (3,5-dichlorophenyl)[(phenylsulfonyl)carbonyl]amine], for which the “Survival at 72 hours” value is listed as “+/−”.

Take `O=C(O)CCC(=O)N1N=C(c2ccc([N+](=O)[O-])cc2)CC1c1ccc(Br)cc1` (stereo not drawn) [Compound 4, 4-[5-(4-bromophenyl)-3-(4-nitrophenyl)-4,5-dihydro-1H-pyrazol-1-yl]-4-oxobutanoic acid]: the “Survival at 72 hours” value is listed as “−”.

As to `Oc1ccccc1C(=S)N1N=C(c2ccccc2)CC1(O)C(F)(F)F` (stereo not drawn) [Compound 42, 1-[(2-hydroxyphenyl)carbonothioyl]-3-phenyl-5-(trifluoromethyl)-4,5-dihydro-1H-pyrazol-5-ol], the “Survival at 72 hours” value is reported as “−”.

As for `O=C(Nc1cccc2nsnc12)c1ccc(Br)o1` [Compound 20, N-2,1,3-benzothiadiazol-4-yl-5-bromo-2-furamide], the “Survival at 72 hours” value is on record as “−”.

In the case of `O=C1/C(=C\c2ccc([N+](=O)[O-])cc2)SC(=S)N1c1cccc(C(F)(F)F)c1` [Compound 16, 5-(4-nitrobenzylidene)-2-thioxo-3-[3-(trifluoromethyl)phenyl]-1,3-thiazolidin-4-one], the “Survival at 72 hours” value is recorded as “+/−”.

Turning to `Cc1cc(=O)n2ccc(CN(C)C)c(O)c2n1` [Compound 14, 8-[(dimethylamino)methyl]-9-hydroxy-2-methyl-4H-pyrido[1,2-a]pyrimidin-4-one], the “Survival at 72 hours” value is on record as “+”.

As for `Cc1ccc(OCc2nnc(NC(=O)Nc3ccc(Cl)c(Cl)c3)s2)cc1` [Compound 53, N-(3,4-dichlorophenyl)-N′-{5-[(4-methylphenoxy)methyl]-1,3,4-thiadiazol-2-yl}urea], the “Survival at 72 hours” value is “+/−”.

As to `COc1ccccc1NC(=O)/C(=C\c1cccs1)NC(=O)c1ccc(C(C)(C)C)cc1` [Compound 46, 4-tert-butyl-N-[1-{[(2-methoxyphenyl)amino]carbonyl}-2-(2-thienyl)vinyl]benzamide], the “Survival at 72 hours” value was “+”.

With `O=C1c2ccccc2NC(c2ccccc2O)N1Cc1ccco1` (stereo not drawn) [Compound 55, 3-(2-furylmethyl)-2-(2-hydroxyphenyl)-2,3-dihydro-4(1H)-quinazolinone], the “Survival at 72 hours” value is “−”.

Consider `CCOC(=O)C1=C(C)N=c2sc(=Cc3cc(Cl)c(OCC(=O)O)c(OC)c3)c(=O)n2C1c1ccccc1Cl` (stereo not drawn) [Compound 25, (2-chloro-4-{[5-(2-chlorophenyl)-6-(ethoxycarbonyl)-7-methyl-3-oxo-5H-[1,3]thiazolo[3,2-a]pyrimidin-2(3H)-ylidene]methyl}-6-methoxyphenoxy)acetic acid], for which the “Survival at 72 hours” value is recorded as “−”.

Regarding `CCOc1ccc(NC(=O)CSc2nnc(-c3ccc(OC)cc3)o2)cc1` [Compound 3, N-(4-ethoxyphenyl)-2-{[5-(4-methoxyphenyl)-1,3,4-oxadiazol-2-yl]thio}acetamide], the “Survival at 72 hours” value is “+/−”.

As for `COc1ccc(NC(=O)c2ccc(N(C)S(=O)(=O)c3ccccc3)cc2)cc1OC` [Compound 37, N-(3,4-dimethoxyphenyl)-4-[methyl(phenylsulfonyl)amino]benzamide], the “Survival at 72 hours” value is listed as “−”.

For the compound `CC1=NN(c2cccc(C(=O)O)c2)C(=O)/C1=C\c1cccc(Br)c1` [Compound 18, 3-[4-(3-bromobenzylidene)-3-methyl-5-oxo-4,5-dihydro-1H-pyrazol-1-yl]benzoic acid], the “Survival at 72 hours” value is reported as “−”.

As to `Cc1ccc(/C=C/C(=O)Nc2cccc(Cl)c2Cl)o1` [Compound 47, N-(2,3-dichlorophenyl)-3-(5-methyl-2-furyl)acrylamide], the “Survival at 72 hours” value was “−”.

Regarding `Cc1ccc(/C=C/C(=O)Nc2ccccc2Br)o1` [Compound 6, N-(2-bromophenyl)-3-(5-methyl-2-furyl)acrylamide], the “Survival at 72 hours” value is reported as “+”.

As for `O=Cc1cn(Cc2ccc(Cl)c(Cl)c2)c2ccccc12` [Compound 35, 1-(3,4-dichlorobenzyl)-1H-indole-3-carbaldehyde], the “Survival at 72 hours” value was “−”.

With `CCOc1ccc(C(=O)Nc2ccc(N3CCN(C(C)=O)CC3)cc2)cc1[N+](=O)[O-]` [Compound 27, N-[4-(4-acetyl-1-piperazinyl)phenyl]-4-ethoxy-3-nitrobenzamide], the “Survival at 72 hours” value is recorded as “+”.

For the compound `C=C1c2ccc(C)cc2NC(=O)N1c1cccc(Cl)c1` [Compound 11, 3-(3-chlorophenyl)-7-methyl-4-methylene-3,4-dihydro-2(1H)-quinazolinone], the “Survival at 72 hours” value is on record as “−”.

Regarding `O=C1c2ccccc2NC(c2c(Cl)cccc2Cl)N1Cc1ccccc1` (stereo not drawn) [Compound 33, 3-benzyl-2-(2,6-dichlorophenyl)-2,3-dihydro-4(1H)-quinazolinone], the “Survival at 72 hours” value is recorded as “−”.

As for `CC(=O)N1CCN(c2ccc([N+](=O)[O-])cc2Cl)CC1C` (stereo not drawn) [Compound 22, 1-acetyl-4-(2-chloro-4-nitrophenyl)-2-methylpiperazine], the “Survival at 72 hours” value is reported as “−”.

For `O=C1NC(=O)N(c2ccccc2Cl)C(=O)C1=Cc1ccccc1` [Compound 48, 5-benzylidene-1-(2-chlorophenyl)-2,4,6(1H,3H,5H)-pyrimidinetrione], the “Survival at 72 hours” value is recorded as “+”.

Another series concerns RAW264.7 cells. The experiment in a line: Toxicity test on osteoclast precursors. As to conditions: RAW264.7 cells grown 72 hours with 10 to 100 μM of compound, vs 0.5% DMSO control. The series is classed as cell-based. The procedure:
The selected compounds were then tested for their toxicity on osteoclast precursors. […] RAW264.7 cells used as osteoclasts […] were allowed to grow for 72 hours with 10 to 100 μM of compound. The growth of the cells was compared to control cells which were grown with 0.5% DMSO.
Take `O=Cc1cn(Cc2ccc(Cl)c(Cl)c2)c2ccccc12` [Compound 35, 1-(3,4-dichlorobenzyl)-1H-indole-3-carbaldehyde]: the “Concentration μM (optimal concentration which does not affect the growth of the cells)” value amounted to 50 µM.

On to `O=C1NC(=O)N(c2ccccc2Cl)C(=O)C1=Cc1ccccc1` [Compound 48, 5-benzylidene-1-(2-chlorophenyl)-2,4,6(1H,3H,5H)-pyrimidinetrione], for which the “Concentration μM (optimal concentration which does not affect the growth of the cells)” value stood at 100 µM.
